Paper PMC8878324, “Evaluation of New Antimicrobial Agents Based on tris(1H-Indol-3-yl)methylium Salts: Activity, Toxicity, Suppression of Experimental Sepsis in Mice” (Pharmaceuticals, 2022)
≈ marks a conversion by molar mass, not a printed value.

How the values were obtained:
[1] = tested on: Candida albicans ATCC 14053; assay: MIC by broth microdilution (RPMI 1640); assay type: cell-based; details: ATCC14053
Procedure: (§1) We have tested the antimicrobial activity in vitro of over 100 tris(indolyl)methane derivatives against 16 strains of Gram-positive, Gram-negative bacteria and fungi including either sensitive or drug-resistant strains from ATCC, as well as resistant clinical isolates from the culture collection of the Laboratory for Control of Hospital Infections (Sechenov University, Moscow, Russia). The minimum inhibitory concentrations (MICs) were determined by the microdilution method in a cation-adjusted Müller–Hinton medium for bacteria and in a liquid culture medium RPMI 1640 with L-glutamine without sodium bicarbonate for fungi in accordance with the requirements of the Institute of Clinical and Laboratory Standards (CLSI/NCCLS). […] As a rule, their activity against Gram-negative bacteria was usually not that high. […] For comparison, the antimicrobial activity of prototype 4 is shown. The antibacterial antibiotic levofloxacin and the antifungal amphotericin B were used as reference drugs (Table 1).
(§2) The synthesis of compounds and the scheme of their preparation and purification, as well as physicochemical characteristics, were described earlier. To evaluate the biological activity in vitro, the compounds were dissolved in DMSO at a concentration of 2.0–6.4 mg/mL, followed by preparation of two-fold dilutions in the same solvent, if necessary. The solutions were further diluted in an aqueous medium for the final concentration of DMSO not to exceed 1%, and the concentration of the compounds ranged from 64.0 to 0.13 μg/mL. To study compounds in vivo, solutions for intravenous administration in 5% glucose solution were prepared. Solutions were sterilized by filtration through 0.22 µm filters (Millipore, Burlington, MA, USA).
(§3) Strains of Gram-positive, Gram-negative bacteria and fungi including sensitive or drug-resistant strains from ATCC, as well as resistant clinical isolates from the culture collection of the Laboratory for Control of Hospital Infections (Sechenov University, Moscow, Russia), were used. Clinical isolates of Gram-positive bacteria Staphylococcus aureus 5 (MRSA), Staphylococcus aureus 10, Staphylococcus aureus 100KC (MRSA), Staphylococcus epidermidis 533, Staphylococcus haemoliticus 585 and Enterococcus faecium 569, as well as collection cultures of Gram-positive bacteria Staphylococcus aureus ATCC 700699, Staphylococcus aureus ATCC 25923, Staphylococcus aureus ATCC 3798 and collection cultures of Gram-negative bacteria Escherichia coli ATCC 25922, Klebsiella pneumoniae ATCC 13883, Proteus vulgaris ATCC 13315, Salmonella cholerasuis ATCC 14028, Pseudomonas aeruginosa ATCC 27853 and collection cultures of the yeast Candida albicans ATCC 14053 and the fungi Aspergillus niger ATCC 16404 were used. To grow the microorganisms, we used Trypticase Soy Agar (TSA, Sigma-Aldrich Co., Burlington, MA, USA). Trypticase Soy Agar, BBL, was used for cultivation of Staphylococcus spp. and E. coli. For cultivation of Enterococcus spp. and P. aeruginosa we used a ready-made dry medium Columbia Agar Base, BBL. The media were sterilized by autoclaving at 121 °C for 15 min. Yeast culture C. albicans was grown on Sabouraud agar (peptone—10 g, glucose—40 g, agar—20 g, distilled water—1 L, pH 6.0), and filamentous fungi A. niger was grown on potato–glucose agar (potatoes—200 g, glucose—20 g, agar—15 g, distilled water—1 L, pH 5.5–6.0).
(§4) To determine the antibacterial effect, a liquid Müller–Hinton medium (Becton, Dickinson and Company, Cockeysville, MD, USA) was used; to determine the effect of compounds on fungi we used RPMI 1640 medium with L-glutamine, without sodium bicarbonate, which was prepared from a dry medium (ICN Biomedicals Inc., Costa Mesa, CA, USA) by dilution in distilled water, subsequent buffering with 0.165 M of morpholinepropanesulfonic acid (MOPS, Acros Organics B.V.B.A., Morris Plains, NJ, USA) and adjusting the pH of the medium to 7.0 by adding 1 N of NaOH solution. […]

[2] = tested on: Aspergillus niger ATCC 16404; assay: MIC by broth microdilution (RPMI 1640); assay type: cell-based; details: ATCC16404
Procedure: as §1, §2, §3, §4

[3] = Cytotoxic activity, MTT assay; assay type: cell-based, human; details: human, HPF-hTERT
Procedure: The cytotoxic activity of the compounds was evaluated on the healthy donor (postnatal) human fibroblasts immortalized by transfection of the hTERT gene of the catalytic component of telomerase (hereinafter HPF-hTERT) that were obtained from N.N. Blokhin Russian Cancer Research Center. HFC-hTERT cells were cultured in Dulbecco’s modified medium (DMEM) containing 2 mM of L-glutamine, 10% fetal calf serum, 100 U/mL of penicillin and 100 μg/mL of streptomycin. Incubation was performed in a humidified atmosphere of 5% CO2 at 37 °C. In the experiment, we used cells in the logarithmic growth phase. To study the cytotoxicity of compounds, 190 μL of cell suspension (~2 thousand cells per well) was added to the wells of 96-well plates and incubated for 16 h. On the day of the experiment, serial dilutions of the test compounds were prepared in DMSO (stock solution—10 mM in 100% DMSO). Further dilutions were conducted in a nutrient medium. The final concentrations of compounds in the experiment were in a concentration range from 0.0025 to 50 μM. The final concentration of DMSO was 1% or less. Each concentration was presented in 3 repetitions. […] The cells were incubated with the test compounds for 72 h. After the end of incubation, 20 μL of MTT solution in growth medium (5 mg/mL) was added to the wells. The cells were incubated for 2 h until a purple color developed, after which the culture medium was removed. DMSO was added to the wells, and the sediment was suspended. Optical density was measured with a Thermo Scientific Multiscan FC spectrophotometer at 570 nm. The values of optical density in wells without addition of test compounds (control) were taken as 100% cell survival. The percentage of survival of cells incubated with the test compounds was calculated by dividing the optical density in the corresponding well (average of 3 independent measurements) by the optical density in the control. The concentration of drugs causing 50% cell death (IC50) was evaluated and expressed in μg/mL.

[4] = tested on: yeast (Candida albicans) and fungi (Aspergillus niger); assay: Antifungal activity; assay type: cell-based; details: Candida albicans and Aspergillus niger
Procedure: as §1
(§5) The minimum inhibitory concentrations (MIC) for Gram-positive and Gram-negative bacteria were determined by two-fold serial microdilution method in a cation-adjusted Müller–Hinton medium for bacteria and in a liquid culture medium RPMI 1640 with L-glutamine without sodium bicarbonate for fungi in accordance with the requirements of the Institute of Clinical and Laboratory Standards (CLSI/NCCLS). The antibacterial antibiotic levofloxacin and the antifungal antibiotic amphotericin B from Sigma-Aldrich were used as reference drugs.

Gram-positive bacteria = assay: MIC against Gram-positive bacteria; assay type: cell-based
Procedure: as §1, §5

Staphylococcus aureus 5 = assay: MIC by broth microdilution; assay type: cell-based; details: Staphylococcus aureus 5 (MRSA)
Procedure: as §1, §2, §3, §4

[5] = tested on: Staphylococcus epidermidis 533; assay: MIC by broth microdilution; assay type: cell-based
Procedure: as §1, §2, §3, §4

[6] = tested on: Klebsiella pneumoniae ATCC 13883; assay: MIC by broth microdilution; assay type: cell-based; details: ATCC13883
Procedure: as §1, §2, §3, §4

Enterococcus faecium 569 = assay: MIC by broth microdilution; assay type: cell-based; details: Enterococcus faecium 569
Procedure: as §1, §2, §3, §4

[7] = tested on: Staphylococcus aureus ATCC 700699; assay: MIC by broth microdilution; assay type: cell-based; details: ATCC700699
Procedure: as §1, §2, §3, §4

[8] = tested on: Escherichia coli ATCC 25922; assay: MIC by broth microdilution; assay type: cell-based; details: ATCC25922
Procedure: as §1, §2, §3, §4

[9] = tested on: Salmonella cholerasuis ATCC 14028; assay: MIC by broth microdilution; assay type: cell-based; details: ATCC14028
Procedure: as §1, §2, §3, §4

[10] = tested on: Staphylococcus aureus ATCC 25923; assay: MIC by broth microdilution; assay type: cell-based; details: ATCC25923
Procedure: as §1, §2, §3, §4

[11] = tested on: Staphylococcus haemoliticus 585; assay: MIC by broth microdilution; assay type: cell-based; details: Staphylococcus haemoliticus 585
Procedure: as §1, §2, §3, §4

Staphylococcus aureus 10 = assay: MIC by broth microdilution; assay type: cell-based
Procedure: as §1, §2, §3, §4

[12] = tested on: Staphylococcus aureus 100KC; assay: MIC by broth microdilution; assay type: cell-based; details: Staphylococcus aureus 100KC (MRSA)
Procedure: as §1, §2, §3, §4

[13] = tested on: Staphylococcus aureus ATCC 3798; assay: MIC by broth microdilution; assay type: cell-based; details: ATCC3798
Procedure: as §1, §2, §3, §4

[14] = tested on: Pseudomonas aeruginosa ATCC 27853; assay: MIC by broth microdilution; assay type: cell-based; details: ATCC27853
Procedure: as §1, §2, §3, §4

[15] = tested on: Proteus vulgaris ATCC 13315; assay: MIC by broth microdilution; assay type: cell-based; details: ATCC13315
Procedure: as §1, §2, §3, §4

| SMILES | MIC [1] | MIC [2] | IC50 at 72 h [3] | MIC [4] | MIC (Gram-positive bacteria) | MIC (Staphylococcus aureus 5) | MIC [5] | MIC [6] | MIC (Enterococcus faecium 569) | MIC [7] | MIC [8] | MIC [9] | MIC [10] | MIC [11] | MIC (Staphylococcus aureus 10) | MIC [12] | MIC [13] | MIC [14] | MIC [15] |
| --- | --- | --- | --- | --- | --- | --- | --- | --- | --- | --- | --- | --- | --- | --- | --- | --- | --- | --- | --- |
| C[C@@H]1[C@H](O)[C@@H](C)/C=C/C=C/C=C/C=C/C=C/C=C/C=C/[C@H](O[C@@H]2O[C@H](C)[C@@H](O)[C@H](N)[C@@H]2O)C[C@@H]2O[C@](O)(C[C@@H](O)C[C@@H](O)[C@H](O)CC[C@@H](O)C[C@@H](O)CC(=O)O[C@H]1C)C[C@H](O)[C@H]2C(=O)O [Amphotericin B, amphotericin B, reference compound] | 1 µg/mL (≈ 1.08 µM) | 1 µg/mL (≈ 1.08 µM) | 0.7 µg/mL (≈ 0.758 µM) |  |  |  |  |  |  |  |  |  |  |  |  |  |  |  |  |
| CCCn1cc([C+](c2cn(CCC)c3ccccc23)c2cn(CCC)c3ccccc23)c2ccccc21.[Cl-] [Compound 4, tris(1-propyl-1H-indol-3-yl) methylium chloride] | 1 µg/mL | 2 µg/mL | 0.07 µg/mL | 2 µg/mL | 0.25 µg/mL | 0.5 µg/mL | 0.13 µg/mL | > 64 µg/mL | 1 µg/mL | 0.25 µg/mL | 32 µg/mL | 32 µg/mL | 0.25 µg/mL | 0.5 µg/mL | 0.25 µg/mL | 0.5 µg/mL | 0.25 µg/mL | 64 µg/mL | 1 µg/mL |
